From ChEMBL document CHEMBL3991601, “The target landscape of clinical kinase drugs” (Science, 2017)
Calls of active or inactive are those of the source. For most assays here, no stated cut-off is given here; in the data, actives have a measured Kd and inactives only a lower limit.

Experiments:
[1] = molecular target: Putative heat shock protein HSP 90-beta 2 (Homo sapiens, UniProt Q58FF8)
[2] = molecular target: Tyrosine-protein kinase HCK (Homo sapiens, UniProt P08631)
[3] = molecular target: T1, Serine/threonine-protein kinase Nek9 (Homo sapiens, UniProt Q8TD19)
T1 sequence (Q8TD19 whole entry): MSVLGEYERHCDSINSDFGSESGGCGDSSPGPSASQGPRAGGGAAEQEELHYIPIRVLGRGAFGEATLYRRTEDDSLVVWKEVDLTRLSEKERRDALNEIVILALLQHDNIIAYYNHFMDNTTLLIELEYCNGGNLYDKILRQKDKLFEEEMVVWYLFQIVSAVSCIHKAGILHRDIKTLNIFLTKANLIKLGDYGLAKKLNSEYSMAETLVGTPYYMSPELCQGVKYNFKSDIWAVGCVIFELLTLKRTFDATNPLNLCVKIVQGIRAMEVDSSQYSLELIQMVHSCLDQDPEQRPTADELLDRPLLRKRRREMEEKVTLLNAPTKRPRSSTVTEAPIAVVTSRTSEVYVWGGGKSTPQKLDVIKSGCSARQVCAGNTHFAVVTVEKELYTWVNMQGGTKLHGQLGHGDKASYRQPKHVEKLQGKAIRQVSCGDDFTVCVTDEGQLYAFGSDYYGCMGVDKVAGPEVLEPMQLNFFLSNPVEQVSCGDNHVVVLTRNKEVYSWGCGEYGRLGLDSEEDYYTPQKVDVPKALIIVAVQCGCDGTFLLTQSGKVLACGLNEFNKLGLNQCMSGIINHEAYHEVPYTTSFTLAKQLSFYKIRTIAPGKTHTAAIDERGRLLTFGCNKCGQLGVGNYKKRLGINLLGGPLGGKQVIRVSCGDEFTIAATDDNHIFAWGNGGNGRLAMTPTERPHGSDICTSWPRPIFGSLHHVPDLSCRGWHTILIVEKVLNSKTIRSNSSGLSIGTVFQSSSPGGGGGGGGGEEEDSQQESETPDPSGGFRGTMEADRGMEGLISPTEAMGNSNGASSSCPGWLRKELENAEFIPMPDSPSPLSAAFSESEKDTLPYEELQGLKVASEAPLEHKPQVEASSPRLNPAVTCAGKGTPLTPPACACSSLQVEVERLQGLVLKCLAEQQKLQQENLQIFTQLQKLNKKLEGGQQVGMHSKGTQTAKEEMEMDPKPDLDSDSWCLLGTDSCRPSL

[4] = molecular target: Insulin receptor (Homo sapiens, UniProt P06213)
Sequence of Insulin receptor (P06213 28-758 limits assumed): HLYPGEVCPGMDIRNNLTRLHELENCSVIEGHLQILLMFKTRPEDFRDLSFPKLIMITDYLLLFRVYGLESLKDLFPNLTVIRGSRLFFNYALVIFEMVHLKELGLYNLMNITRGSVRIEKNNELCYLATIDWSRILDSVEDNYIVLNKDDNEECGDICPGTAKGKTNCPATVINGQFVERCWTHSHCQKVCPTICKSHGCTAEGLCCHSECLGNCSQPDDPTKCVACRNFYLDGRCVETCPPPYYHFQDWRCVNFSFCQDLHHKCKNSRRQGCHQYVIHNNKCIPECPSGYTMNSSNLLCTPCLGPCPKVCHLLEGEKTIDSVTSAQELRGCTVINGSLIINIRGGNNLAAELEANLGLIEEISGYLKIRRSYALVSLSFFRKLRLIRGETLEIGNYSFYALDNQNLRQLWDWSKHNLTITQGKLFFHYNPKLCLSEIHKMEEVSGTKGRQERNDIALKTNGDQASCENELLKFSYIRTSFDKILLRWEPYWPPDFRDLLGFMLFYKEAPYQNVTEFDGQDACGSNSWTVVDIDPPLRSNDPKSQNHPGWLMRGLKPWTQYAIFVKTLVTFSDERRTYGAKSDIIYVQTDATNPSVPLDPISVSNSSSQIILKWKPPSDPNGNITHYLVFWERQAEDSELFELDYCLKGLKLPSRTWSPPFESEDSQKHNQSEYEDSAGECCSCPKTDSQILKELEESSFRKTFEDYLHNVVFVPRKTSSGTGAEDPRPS
Sequence of Insulin receptor (P06213 763-1382 limits assumed): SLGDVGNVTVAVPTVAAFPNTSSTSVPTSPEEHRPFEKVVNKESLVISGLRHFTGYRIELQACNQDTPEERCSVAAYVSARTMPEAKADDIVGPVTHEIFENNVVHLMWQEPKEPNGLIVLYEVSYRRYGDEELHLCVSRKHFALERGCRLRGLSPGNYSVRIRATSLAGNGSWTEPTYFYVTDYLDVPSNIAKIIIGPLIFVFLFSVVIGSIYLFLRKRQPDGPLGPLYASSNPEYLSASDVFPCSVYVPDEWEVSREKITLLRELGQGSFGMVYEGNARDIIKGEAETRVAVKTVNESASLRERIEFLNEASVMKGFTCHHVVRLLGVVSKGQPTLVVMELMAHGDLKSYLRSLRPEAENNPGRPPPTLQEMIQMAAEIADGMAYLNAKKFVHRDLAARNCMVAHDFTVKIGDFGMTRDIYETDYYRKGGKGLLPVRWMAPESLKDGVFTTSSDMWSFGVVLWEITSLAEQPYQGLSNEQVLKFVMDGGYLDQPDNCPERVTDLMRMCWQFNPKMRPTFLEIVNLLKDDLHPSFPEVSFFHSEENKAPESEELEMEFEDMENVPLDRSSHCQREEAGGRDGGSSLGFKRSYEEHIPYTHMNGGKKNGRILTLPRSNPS

[5] = molecular target: T2, Bone morphogenetic protein receptor type-2 (Homo sapiens, UniProt Q13873)
T2 sequence (Q13873 whole entry): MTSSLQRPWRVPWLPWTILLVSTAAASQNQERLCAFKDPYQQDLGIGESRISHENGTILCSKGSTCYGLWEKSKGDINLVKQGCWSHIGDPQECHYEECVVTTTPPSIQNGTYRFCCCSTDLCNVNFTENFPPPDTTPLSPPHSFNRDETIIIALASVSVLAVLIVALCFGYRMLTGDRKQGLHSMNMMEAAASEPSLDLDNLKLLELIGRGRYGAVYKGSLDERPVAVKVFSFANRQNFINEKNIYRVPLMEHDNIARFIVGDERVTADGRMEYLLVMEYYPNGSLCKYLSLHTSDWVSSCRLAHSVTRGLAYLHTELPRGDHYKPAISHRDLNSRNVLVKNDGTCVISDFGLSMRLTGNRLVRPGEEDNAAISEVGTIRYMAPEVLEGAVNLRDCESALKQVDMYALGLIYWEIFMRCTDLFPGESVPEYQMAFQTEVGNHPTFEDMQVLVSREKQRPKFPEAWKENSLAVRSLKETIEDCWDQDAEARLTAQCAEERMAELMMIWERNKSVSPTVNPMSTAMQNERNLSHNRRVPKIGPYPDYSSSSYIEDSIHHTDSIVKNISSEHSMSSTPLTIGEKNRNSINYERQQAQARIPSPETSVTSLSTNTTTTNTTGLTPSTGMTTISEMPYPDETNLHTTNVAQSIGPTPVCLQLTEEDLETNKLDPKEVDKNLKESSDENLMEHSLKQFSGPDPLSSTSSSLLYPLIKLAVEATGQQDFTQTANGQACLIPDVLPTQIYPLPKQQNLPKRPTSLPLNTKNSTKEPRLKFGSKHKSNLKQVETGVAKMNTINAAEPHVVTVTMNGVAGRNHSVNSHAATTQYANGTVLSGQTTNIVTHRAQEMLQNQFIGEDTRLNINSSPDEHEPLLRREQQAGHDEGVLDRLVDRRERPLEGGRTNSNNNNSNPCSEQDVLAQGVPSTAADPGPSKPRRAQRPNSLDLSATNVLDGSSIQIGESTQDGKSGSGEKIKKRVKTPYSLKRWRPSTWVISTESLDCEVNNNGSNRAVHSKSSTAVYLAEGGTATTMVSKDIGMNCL

[6] = molecular target: Rho-associated protein kinase 2 (Homo sapiens, UniProt O75116)
Sequence of Rho-associated protein kinase 2 (O75116 whole entry): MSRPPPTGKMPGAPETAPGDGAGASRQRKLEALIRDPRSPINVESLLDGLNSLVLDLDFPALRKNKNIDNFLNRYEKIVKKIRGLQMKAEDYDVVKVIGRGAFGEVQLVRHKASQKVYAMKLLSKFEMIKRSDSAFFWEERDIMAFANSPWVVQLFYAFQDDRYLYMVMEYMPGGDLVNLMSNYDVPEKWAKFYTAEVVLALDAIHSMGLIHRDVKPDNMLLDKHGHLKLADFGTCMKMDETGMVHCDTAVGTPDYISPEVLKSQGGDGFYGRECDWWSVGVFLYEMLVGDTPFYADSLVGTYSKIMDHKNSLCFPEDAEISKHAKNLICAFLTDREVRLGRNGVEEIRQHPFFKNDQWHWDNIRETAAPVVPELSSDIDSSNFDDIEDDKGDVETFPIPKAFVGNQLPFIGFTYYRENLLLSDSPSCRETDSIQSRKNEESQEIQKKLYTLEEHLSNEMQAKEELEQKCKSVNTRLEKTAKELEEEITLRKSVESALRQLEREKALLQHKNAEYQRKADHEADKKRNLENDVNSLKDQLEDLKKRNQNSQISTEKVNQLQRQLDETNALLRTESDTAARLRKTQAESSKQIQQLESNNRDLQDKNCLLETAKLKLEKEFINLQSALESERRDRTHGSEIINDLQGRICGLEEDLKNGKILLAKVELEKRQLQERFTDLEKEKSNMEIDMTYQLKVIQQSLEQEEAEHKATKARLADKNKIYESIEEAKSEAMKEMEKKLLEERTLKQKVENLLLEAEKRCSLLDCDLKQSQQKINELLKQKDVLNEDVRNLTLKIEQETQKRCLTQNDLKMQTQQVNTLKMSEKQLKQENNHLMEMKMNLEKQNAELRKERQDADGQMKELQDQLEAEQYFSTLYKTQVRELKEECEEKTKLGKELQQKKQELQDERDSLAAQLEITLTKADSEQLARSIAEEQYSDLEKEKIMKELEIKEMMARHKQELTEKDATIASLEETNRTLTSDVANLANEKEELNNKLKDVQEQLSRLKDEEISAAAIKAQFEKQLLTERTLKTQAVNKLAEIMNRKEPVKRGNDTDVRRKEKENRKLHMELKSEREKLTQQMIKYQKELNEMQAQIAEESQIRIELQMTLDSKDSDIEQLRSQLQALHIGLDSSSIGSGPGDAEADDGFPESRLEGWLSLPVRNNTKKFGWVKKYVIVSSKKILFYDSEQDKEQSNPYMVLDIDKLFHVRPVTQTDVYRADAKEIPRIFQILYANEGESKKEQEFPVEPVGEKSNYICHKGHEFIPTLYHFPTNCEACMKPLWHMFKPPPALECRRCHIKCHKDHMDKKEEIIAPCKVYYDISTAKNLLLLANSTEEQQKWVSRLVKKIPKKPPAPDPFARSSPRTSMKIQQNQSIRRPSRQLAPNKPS

[7] = molecular target: T3, cGMP-dependent protein kinase 1 (Homo sapiens, UniProt Q13976)
T3 sequence (Q13976 whole entry): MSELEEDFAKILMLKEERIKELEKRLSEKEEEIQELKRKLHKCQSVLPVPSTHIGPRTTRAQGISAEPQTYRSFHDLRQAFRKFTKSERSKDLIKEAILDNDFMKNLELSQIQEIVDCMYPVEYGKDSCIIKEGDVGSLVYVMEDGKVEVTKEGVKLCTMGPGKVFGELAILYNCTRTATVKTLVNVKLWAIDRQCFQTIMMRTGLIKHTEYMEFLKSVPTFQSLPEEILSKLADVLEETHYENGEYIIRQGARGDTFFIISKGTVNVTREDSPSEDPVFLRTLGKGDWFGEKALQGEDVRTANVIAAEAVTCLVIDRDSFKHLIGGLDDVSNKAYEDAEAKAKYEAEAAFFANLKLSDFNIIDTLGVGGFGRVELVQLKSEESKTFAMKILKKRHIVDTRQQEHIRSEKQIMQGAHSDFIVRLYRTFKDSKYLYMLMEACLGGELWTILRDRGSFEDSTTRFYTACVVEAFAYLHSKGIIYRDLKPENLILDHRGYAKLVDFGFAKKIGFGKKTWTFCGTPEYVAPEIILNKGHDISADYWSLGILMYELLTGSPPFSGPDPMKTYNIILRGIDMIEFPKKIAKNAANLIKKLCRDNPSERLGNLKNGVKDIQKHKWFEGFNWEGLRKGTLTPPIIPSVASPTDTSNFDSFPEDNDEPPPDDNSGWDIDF

[8] = molecular target: Protein kinase C beta type (Homo sapiens, UniProt P05771)
Sequence of Protein kinase C beta type (P05771 whole entry): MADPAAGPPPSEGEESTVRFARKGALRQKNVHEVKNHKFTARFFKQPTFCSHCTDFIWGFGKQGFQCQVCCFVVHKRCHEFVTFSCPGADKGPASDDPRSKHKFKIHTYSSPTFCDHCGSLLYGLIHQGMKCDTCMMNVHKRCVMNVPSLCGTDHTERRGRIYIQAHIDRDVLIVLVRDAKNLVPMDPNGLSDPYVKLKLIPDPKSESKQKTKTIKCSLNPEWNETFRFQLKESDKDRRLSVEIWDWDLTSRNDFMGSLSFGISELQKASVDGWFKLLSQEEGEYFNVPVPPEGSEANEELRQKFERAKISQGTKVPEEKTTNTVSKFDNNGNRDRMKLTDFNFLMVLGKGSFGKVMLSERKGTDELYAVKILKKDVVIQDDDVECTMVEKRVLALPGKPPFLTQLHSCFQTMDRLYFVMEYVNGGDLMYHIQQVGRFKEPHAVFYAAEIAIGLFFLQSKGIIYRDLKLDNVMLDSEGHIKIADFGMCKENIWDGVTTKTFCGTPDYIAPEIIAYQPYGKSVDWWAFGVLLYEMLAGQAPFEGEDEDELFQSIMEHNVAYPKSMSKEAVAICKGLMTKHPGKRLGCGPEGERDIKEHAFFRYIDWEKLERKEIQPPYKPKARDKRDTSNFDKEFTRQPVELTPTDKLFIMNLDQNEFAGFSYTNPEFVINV

[9] = molecular target: cAMP-dependent protein kinase type II-alpha regulatory subunit (Homo sapiens, UniProt P13861)
Sequence of cAMP-dependent protein kinase type II-alpha regulatory subunit (P13861 whole entry): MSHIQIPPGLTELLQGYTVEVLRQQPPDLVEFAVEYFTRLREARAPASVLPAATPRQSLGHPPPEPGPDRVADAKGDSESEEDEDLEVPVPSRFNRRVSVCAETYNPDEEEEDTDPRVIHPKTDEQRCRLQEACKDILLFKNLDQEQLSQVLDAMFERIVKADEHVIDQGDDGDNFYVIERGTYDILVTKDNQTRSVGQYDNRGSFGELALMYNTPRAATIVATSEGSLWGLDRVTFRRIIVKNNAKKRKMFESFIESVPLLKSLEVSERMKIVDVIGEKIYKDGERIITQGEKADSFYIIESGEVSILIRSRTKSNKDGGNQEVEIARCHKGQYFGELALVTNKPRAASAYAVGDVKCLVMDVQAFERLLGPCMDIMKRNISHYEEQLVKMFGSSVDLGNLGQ

Sequence of Tyrosine-protein kinase HCK (P08631 whole entry): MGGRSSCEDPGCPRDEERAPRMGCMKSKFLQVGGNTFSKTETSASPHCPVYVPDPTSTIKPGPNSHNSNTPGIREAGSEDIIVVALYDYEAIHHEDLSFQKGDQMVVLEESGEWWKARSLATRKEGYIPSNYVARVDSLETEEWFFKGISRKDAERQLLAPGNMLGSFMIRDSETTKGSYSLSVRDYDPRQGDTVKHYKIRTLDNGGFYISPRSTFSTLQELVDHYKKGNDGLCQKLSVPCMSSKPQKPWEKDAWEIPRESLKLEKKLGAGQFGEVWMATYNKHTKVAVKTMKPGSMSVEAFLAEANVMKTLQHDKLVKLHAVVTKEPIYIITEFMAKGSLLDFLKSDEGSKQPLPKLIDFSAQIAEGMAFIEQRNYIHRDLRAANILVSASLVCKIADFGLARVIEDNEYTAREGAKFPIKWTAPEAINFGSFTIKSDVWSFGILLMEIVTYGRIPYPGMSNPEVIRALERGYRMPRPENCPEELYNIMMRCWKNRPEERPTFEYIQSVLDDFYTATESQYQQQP
Sequence of Putative heat shock protein HSP 90-beta 2 (Q58FF8 whole entry): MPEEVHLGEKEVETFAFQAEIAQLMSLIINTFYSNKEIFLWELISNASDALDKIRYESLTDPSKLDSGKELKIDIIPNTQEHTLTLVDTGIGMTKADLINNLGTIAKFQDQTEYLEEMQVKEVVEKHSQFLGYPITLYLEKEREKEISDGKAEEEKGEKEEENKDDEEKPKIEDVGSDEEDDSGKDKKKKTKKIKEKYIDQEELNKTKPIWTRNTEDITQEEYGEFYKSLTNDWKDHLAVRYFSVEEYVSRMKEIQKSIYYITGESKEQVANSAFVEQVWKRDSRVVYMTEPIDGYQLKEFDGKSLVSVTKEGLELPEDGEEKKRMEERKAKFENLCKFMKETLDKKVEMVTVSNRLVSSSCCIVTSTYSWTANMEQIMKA

SMILES	Kd [1]	Kd [2]	Kd [3]	Kd [4]	Kd [5]	Kd [6]	Kd [7]	Kd [8]	Kd [9]
CN(C)C(=O)c1cc2cnc(Nc3ccc(N4CCNCC4)cn3)nc2n1C1CCCC1 [RIBOCICLIB]	> 30 µM (inactive)	> 30 µM (inactive)	> 30 µM (inactive)	> 30 µM (inactive)	> 30 µM (inactive)	> 30 µM (inactive)	> 30 µM (inactive)	> 30 µM (inactive)	
Cc1ccc(-n2nc(C(C)(C)C)cc2NC(=O)NCc2cc(F)ccc2Oc2ccc3c(cnn3CCO)c2)cc1 [PEXMETINIB]	> 30 µM (inactive)	> 30 µM (inactive)	> 30 µM (inactive)	> 30 µM (inactive)	> 30 µM (inactive)	> 30 µM (inactive)	> 30 µM (inactive)	> 30 µM (inactive)	
CN1CCN(c2ccc3nc(-c4c(N)c5c(F)cccc5[nH]c4=O)[nH]c3c2)CC1 [DOVITINIB]	> 30 µM (inactive)							> 30 µM (inactive)	> 30 µM (inactive)
Cc1cc(Nc2cc(N3CCN(C)CC3)nc(/C=C/c3ccccc3)n2)n[nH]1 [ENMD-2076]	> 30 µM (inactive)	> 30 µM (inactive)						> 30 µM (inactive)	> 30 µM (inactive)
Cn1cc(-c2ccc(F)c(C(F)(F)F)c2)nc1C1CCN(c2ncnc3[nH]ncc23)CC1 [LY-2584702]	> 30 µM (inactive)	> 30 µM (inactive)	> 30 µM (inactive)	> 30 µM (inactive)	> 30 µM (inactive)	> 30 µM (inactive)	> 30 µM (inactive)	> 30 µM (inactive)	
CNC(=O)c1ccc(C)c(-n2c(C)cc(OCc3ccc(F)cc3F)c(Br)c2=O)c1 [PH-797804]	> 30 µM (inactive)	> 30 µM (inactive)	> 30 µM (inactive)	> 30 µM (inactive)	> 30 µM (inactive)		> 30 µM (inactive)	> 30 µM (inactive)	
CNC(=O)c1cc(Oc2ccc(NC(=O)Nc3ccc(Cl)c(C(F)(F)F)c3)c(F)c2)ccn1 [REGORAFENIB]		> 30 µM (inactive)	> 30 µM (inactive)	> 30 µM (inactive)	> 30 µM (inactive)	> 30 µM (inactive)	> 30 µM (inactive)	> 30 µM (inactive)	> 30 µM (inactive)
CCn1c(-c2nonc2N)nc2c(C#CC(C)(C)O)ncc(OC[C@H]3CCCNC3)c21 [GSK-690693]	> 30 µM (inactive)							0.31 µM (active)	0.052 µM
O=C(Nc1cccc(Cl)c1)Nc1ncc(CCNc2ncnc3ccsc23)s1 [SNS-314]	> 30 µM (inactive)	> 30 µM (inactive)	> 30 µM (inactive)		> 30 µM (inactive)			> 30 µM (inactive)	> 30 µM (inactive)
Cc1cn(-c2cc(NC(=O)c3ccc(C)c(Nc4nccc(-c5cccnc5)n4)c3)cc(C(F)(F)F)c2)cn1 [NILOTINIB]	> 30 µM (inactive)							> 30 µM (inactive)	> 30 µM (inactive)
Nc1nc(N)c2nc(-c3cccc(O)c3)c(-c3cccc(O)c3)nc2n1 [TG100-115]	> 30 µM (inactive)							> 30 µM (inactive)	> 30 µM (inactive)
Cc1nc(N)sc1-c1ccnc(Nc2ccc(N3CCOCC3)cc2)n1 [CYC-116]	> 30 µM (inactive)		0.133 µM (active)					> 30 µM (inactive)	
C[C@@H](Nc1cc(F)cc(F)c1)c1cc(C(=O)N(C)C)cc2c(=O)cc(N3CCOCC3)oc12 [AZD-8186]	> 30 µM (inactive)	> 30 µM (inactive)	> 30 µM (inactive)	> 30 µM (inactive)	> 30 µM (inactive)	> 30 µM (inactive)	> 30 µM (inactive)	> 30 µM (inactive)	
Cc1ccc(S(=O)(=O)Nc2nc3ccccc3nc2Nc2ccc3nsnc3c2)cc1		> 30 µM (inactive)	> 30 µM (inactive)	> 30 µM (inactive)	> 30 µM (inactive)	> 30 µM (inactive)	> 30 µM (inactive)	> 30 µM (inactive)	
C=CC(=O)N1CCC(Oc2cc3c(Nc4ccc(Cl)c(Cl)c4F)ncnc3cc2OC)CC1 [POZIOTINIB]		> 30 µM (inactive)	> 30 µM (inactive)	> 30 µM (inactive)	> 30 µM (inactive)	> 30 µM (inactive)	> 30 µM (inactive)	> 30 µM (inactive)	
